Where a name gives a salt, the structure may show the parent alone.
Legend:
[1] = test system: LTB4 production in murine blood (LTA4H); assay: LTB4 production by calcium ionophore-stimulated murine blood for LTA4H inhibitor activity; format: cell-based, CD-1 mice; details: Mus musculus; murine blood diluted 1 in 15, A23187 stimulated; single determination or average; mark after value = form tested: ′ free base, ″ hydrochloride, ^ formate; read-out: IC50
How it was run: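 LTB4 was measured by ELISA in supernatants after calcium ionophore A23187 stimulation (final 7 μg/mL, 30 min, 37° C) of CD-1 mouse blood collected on heparin. Compound was preincubated with the blood for 15 min beforehand. Values come from one determination or average several.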

[2] = target: T1, recombinant human LTA4 hydrolase (rhLTA4H) (Homo sapiens, UniProt P09960); assay: Recombinant human LTA4 hydrolase assay for LTA4 hydrolase inhibitor activity; format: biochemical; details: rhLTA4H, LTB4 by immunoassay; single determination or average of two or more; mark after value = form tested: ′ free base, ″ hydrochloride, ^ formate; read-out: IC50
T1 construct: made in house; host or cells: Spodoptera frugiperda (Sf-9) cells, baculovirus (pFastBac1)
T1 sequence (P09960 1-611): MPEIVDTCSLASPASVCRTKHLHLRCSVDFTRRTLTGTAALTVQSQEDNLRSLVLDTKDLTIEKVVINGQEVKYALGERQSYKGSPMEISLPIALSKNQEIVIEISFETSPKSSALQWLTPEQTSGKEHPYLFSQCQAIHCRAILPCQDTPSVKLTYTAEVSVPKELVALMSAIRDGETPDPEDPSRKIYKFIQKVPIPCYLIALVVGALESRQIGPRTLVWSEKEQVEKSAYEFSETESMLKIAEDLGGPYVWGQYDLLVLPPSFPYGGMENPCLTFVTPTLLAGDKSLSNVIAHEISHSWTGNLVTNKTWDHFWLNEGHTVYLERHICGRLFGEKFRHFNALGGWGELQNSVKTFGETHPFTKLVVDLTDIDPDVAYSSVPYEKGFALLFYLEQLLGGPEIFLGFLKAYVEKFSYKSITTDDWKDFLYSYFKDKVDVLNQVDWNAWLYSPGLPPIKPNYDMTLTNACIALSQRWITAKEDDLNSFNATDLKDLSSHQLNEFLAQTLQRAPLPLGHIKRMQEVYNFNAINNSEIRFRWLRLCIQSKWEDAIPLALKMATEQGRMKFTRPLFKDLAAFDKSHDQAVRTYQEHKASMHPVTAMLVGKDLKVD
How it was run: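 LTB4 formation, measured by enzyme immunoassay, was the read-out. The enzyme, recombinant human LTA4H expressed in Sf-9 insect cells (10 ng per reaction), was exposed to compound for 10 min at room temperature before hydrolysed-ester LTA4 substrate was added for 30 min. Enzyme-free negatives were included.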

Row | Structure (SMILES) | IC50 [1] | IC50 [2]
1 | CC(=O)N[C@H]1C[C@H]2CC[C@@H](C1)N2Cc1cc2cc(Oc3nc4ccccc4s3)ccc2o1 [Example 83, meso-endo-N-{8-[5-(Benzothiazol-2-yloxy)-benzofuran-2-ylmethyl]-8-aza-bicyclo[3.2.1]oct-3-yl}-acetamide formate] | 119 nM | 70 nM
2 | CC(=O)N[C@H]1C[C@H]2CC[C@@H](C1)N2Cc1cc2cc(Oc3nc4c(F)cccc4s3)ccc2o1 [Example 85, meso-endo-N-{8-[5-(4-Fluoro-benzothiazol-2-yloxy)-benzofuran-2-ylmethyl]-8-aza-bicyclo[3.2.1]oct-3-yl}-acetamide] | 210 nM | 17 nM
3 | c1cnc2nc(Oc3ccc4c(CN5CCC(c6ccncc6)CC5)coc4c3)sc2c1 [Example 220, 1-[6-(Thiazolo[4,5-b]pyridin-2-yloxy)-benzofuran-3-ylmethyl]-1,2,3,4,5,6-hexahydro-[4,4′]bipyridinyl] | 12 nM | 5 nM
4 | CCN(CC)Cc1coc2cc(Oc3nc4ncccc4s3)ccc12 [Example 219, Diethyl-[6-(thiazolo[4,5-b]pyridin-2-yloxy)-benzofuran-3-ylmethyl]-amine] | 20 nM | 2 nM
5 | Fc1ccc2c(c1)CN(Cc1coc3cc(Oc4nc5ncccc5s4)ccc13)C2 [Example 330, 2-[3-(5-Fluoro-1,3-dihydro-isoindol-2-ylmethyl)-benzofuran-6-yloxy]-thiazolo[4,5-b]pyridine] | 1040 nM | 54 nM
6 | CC(=O)N[C@H]1C[C@H]2CC[C@@H](C1)N2Cc1cc2ccc(Oc3nc4ccccc4s3)cc2s1 [Example 134, meso-endo-N-{8-[6-(Benzothiazol-2-yloxy)-benzo[b]thiophen-2-ylmethyl]-8-aza-bicyclo[3.2.1]oct-3-yl}-acetamide] | 740 nM | 43 nM
7 | O=C1CCc2ccccc2N1Cc1coc2cc(Oc3nc4ncccc4s3)ccc12 [Example 397, 1-[6-(Thiazolo[4,5-b]pyridin-2-yloxy)-benzofuran-3-ylmethyl]-3,4-dihydro-1H-quinolin-2-one] | 820 nM | 16 nM
8 | NC(=O)N1C[C@H]2C[C@@H]1CN2Cc1cc2ccc(Oc3nc4ncccc4s3)cc2o1 [Example 193, (1R,4R)-5-[6-(Thiazolo[4,5-b]pyridin-2-yloxy)-benzofuran-2-ylmethyl]-2,5-diaza-bicyclo[2.2.1]heptane-2-carboxylic acid amide] | 260 nM | 52 nM
9 | CC(=O)N1[C@@H]2CC[C@H]1CN(Cc1coc3cc(Oc4nc5ncccc5s4)ccc13)C2 [Example 295, meso-1-{3-[6-(Thiazolo[4,5-b]pyridin-2-yloxy)-benzofuran-3-ylmethyl]-3,8-diaza-bicyclo[3.2.1]oct-8-yl}-ethanone formate] | 55 nM | 4 nM
10 | Cc1cc(CC(=O)NCc2coc3cc(Oc4nc5ncccc5s4)ccc23)on1 [Example 391, 2-(3-Methyl-isoxazol-5-yl)-N-[6-(thiazolo[4,5-b]pyridin-2-yloxy)-benzofuran-3-ylmethyl]-acetamide] | 560 nM | 74 nM
11 | CC(C)CNCc1coc2cc(Oc3nc4ncccc4s3)ccc12 [Example 304, Isobutyl-[6-(thiazolo[4,5-b]pyridin-2-yloxy)-benzofuran-3-ylmethyl]-amine formate] | 24 nM | 3 nM
12 | c1cnc2nc(Oc3ccc4c(CNC5CCCCC5)coc4c3)sc2c1 [Example 299, Cyclohexyl-[6-(thiazolo[4,5-b]pyridin-2-yloxy)-benzofuran-3-ylmethyl]-amine] | 12 nM | 16 nM
13 | CN(Cc1ccco1)Cc1coc2cc(Oc3nc4ncccc4s3)ccc12 [Example 176, Furan-2-ylmethyl-methyl-[6-(thiazolo[4,5-b]pyridin-2-yloxy)-benzofuran-3-ylmethyl]-amine] | 200 nM | 60 nM
14 | CC(=O)NC1CCN(Cc2coc3cc(Oc4nc5nccc(C)c5s4)ccc23)CC1 [Example 252, N-{1-[6-(7-Methyl-thiazolo[4,5-b]pyridin-2-yloxy)-benzofuran-3-ylmethyl]-piperidin-4-yl}-acetamide formate] | 48 nM | 24 nM
15 | c1cnc2nc(Oc3ccc4c(CN5CCC(N6CCOCC6)CC5)coc4c3)sc2c1 [Example 285, 2-[3-(4-Morpholin-4-yl-piperidin-1-ylmethyl)-benzofuran-6-yloxy]-thiazolo[4,5-b]pyridine formate] | 50 nM | 16 nM
16 | NC(=O)N1C[C@@H]2C[C@H]1CN2 [Inter. 17, (1S,4S)-2,5-Diaza-bicyclo[2.2.1]heptane-2-carboxylic acid amide hydrochloride] | 1000 nM | 37 nM

The remaining lines, values ahead:

Row | IC50 [1] | IC50 [2] | Structure (SMILES)
17 | 34 nM | 10 nM | OC1CN(Cc2coc3cc(Oc4nc5ncccc5s4)ccc23)C1 [Example 315, 1-[6-(Thiazolo[4,5-b]pyridin-2-yloxy)-benzofuran-3-ylmethyl]-azetidin-3-ol]
18 | 240 nM | 26 nM | c1ccc(N2CCN(Cc3coc4cc(Oc5nc6ncccc6s5)ccc34)CC2)cc1 [Example 287, 2-[3-(4-Phenyl-piperazin-1-ylmethyl)-benzofuran-6-yloxy]-thiazolo[4,5-b]pyridine formate]
19 | 220 nM | 7 nM | O=C(C1CCC1)N1C[C@@H]2C[C@H]1CN2Cc1coc2cc(Oc3nc4ncccc4s3)ccc12 [Example 357, (1S,4S)-Cyclobutyl-{5-[6-(thiazolo[4,5-b]pyridin-2-yloxy)-benzofuran-3-ylmethyl]-2,5-diaza-bicyclo[2.2.1]hept-2-yl}-methanone]
20 | 401 nM | 20 nM | c1cnc2nc(Oc3ccc4c(CN5CCc6sc7ccccc7c6C5)c[nH]c4c3)sc2c1 [Example 34, 2-[6-(Thiazolo[4,5-b]pyridin-2-yloxy)-1H-indol-3-ylmethyl]-1,2,3,4-tetrahydro-benzo[4,5]thieno[3,2-c]pyridine formate]
21 | 234 nM | 34 nM | c1cnc2nc(Oc3ccc4c(CN5CCc6c(sc7ccccc67)C5)c[nH]c4c3)sc2c1 [Example 35, 2-[6-(Thiazolo[4,5-b]pyridin-2-yloxy)-1H-indol-3-ylmethyl]-1,2,3,4-tetrahydro-benzo[4,5]thieno[2,3-c]pyridine]
22 | 1340 nM | 6 nM | O=C(O)C1CCN(Cc2c[nH]c3cc(Oc4nc5ccccc5s4)ccc23)CC1 [Example 45, 1-[6-(Benzothiazol-2-yloxy)-1H-indol-3-ylmethyl]-piperidine-4-carboxylic acid]
23 | 582 nM | 17 nM | CC(C)(C)OC(=O)N1CC2CN(Cc3c[nH]c4cc(Oc5nc6ccccc6s5)ccc34)CC2C1 (stereo not shown) [Example 146, 5-[6-(Benzothiazol-2-yloxy)-1H-indol-3-ylmethyl]-hexahydro-pyrrolo[3,4-c]pyrrole-2-carboxylic acid tert-butyl ester]
24 | 28 nM | 15 nM | CCCOC1CN(Cc2coc3cc(Oc4nc5ncccc5s4)ccc23)C1 [Example 314, 2-[3-(3-Propoxy-azetidin-1-ylmethyl)-benzofuran-6-yloxy]-thiazolo[4,5-b]pyridine]
25 | 450 nM | 20 nM | c1ccc2sc(Oc3ccc4cc(CN5CCCC5)[nH]c4c3)nc2c1 [Example 68, 2-(2-Pyrrolidin-1-ylmethyl-1H-indol-6-yloxy)-benzothiazole]
26 | 411 nM | 23 nM | c1ccc2sc(Oc3ccc4c(CN5C[C@@H]6C[C@H]5CN6)c[nH]c4c3)nc2c1 [Example 52, (1S,4S)-2-[3-(2,5-Diaza-bicyclo[2.2.1]hept-2-ylmethyl)-1H-indol-6-yloxy]-benzothiazole 2HCl]
27 | 130 nM | 29 nM | CCN(CC)C1CCN(Cc2coc3cc(Oc4nc5ncccc5s4)ccc23)C1 (stereo not shown) [Example 327, Diethyl-{1-[6-(thiazolo[4,5-b]pyridin-2-yloxy)-benzofuran-3-ylmethyl]-pyrrolidin-3-yl}-amine]
28 | 190 nM | 23 nM | CS(=O)(=O)C1CCN(Cc2c[nH]c3cc(Oc4nc5ccccc5s4)ccc23)CC1 [Example 4, 2-[3-(4-Methanesulfonyl-piperidin-1-ylmethyl)-1H-indol-6-yloxy]-benzothiazole]
29 | 1140 nM | 11 nM | c1ccc(C2CCN(Cc3c[nH]c4cc(Oc5nc6ccccc6s5)ccc34)CC2)cc1 [Example 8, 2-[3-(4-Phenyl-piperidin-1-ylmethyl)-1H-indol-6-yloxy]-benzothiazole]
